# Reference: patent US10479795B2 (Incyte Corporation, priority 2016, dated 2019)
# Structures can show the parent of a compound that is named as a salt. Where two headings read alike, the source gives them in different places.
# Key:
# [1] = system: Phosphorylated Ribosomal Protein S6 (RPS6); test: THP-1 RPS6 ELISA Assay; type: cell-based, Human; conditions: THP-1 cells, read-out: PI3Kγ_THP1_RPS6_ELISA IC50
# How it was run: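 Serum-starved THP-1 cells were preincubated with a concentration range of compound for 2 h at 37 °C, then stimulated with 10 nM MCP-1 for 15 min. Phospho-RPS6 in lysates was quantified by ELISA at 450 nm. IC50 came from percent inhibition versus log inhibitor concentration.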
# [2] = molecular target: PI3Kγ (p110γ) Recombinant Human Protein (Homo sapiens (Human), UniProt P48736); test: PI3K-γ Scintillation Proximity Assay; type: biochemical; conditions: read-out: PI3Kγ IC50
# Chain of PI3Kγ (p110γ) Recombinant Human Protein (P48736 whole entry): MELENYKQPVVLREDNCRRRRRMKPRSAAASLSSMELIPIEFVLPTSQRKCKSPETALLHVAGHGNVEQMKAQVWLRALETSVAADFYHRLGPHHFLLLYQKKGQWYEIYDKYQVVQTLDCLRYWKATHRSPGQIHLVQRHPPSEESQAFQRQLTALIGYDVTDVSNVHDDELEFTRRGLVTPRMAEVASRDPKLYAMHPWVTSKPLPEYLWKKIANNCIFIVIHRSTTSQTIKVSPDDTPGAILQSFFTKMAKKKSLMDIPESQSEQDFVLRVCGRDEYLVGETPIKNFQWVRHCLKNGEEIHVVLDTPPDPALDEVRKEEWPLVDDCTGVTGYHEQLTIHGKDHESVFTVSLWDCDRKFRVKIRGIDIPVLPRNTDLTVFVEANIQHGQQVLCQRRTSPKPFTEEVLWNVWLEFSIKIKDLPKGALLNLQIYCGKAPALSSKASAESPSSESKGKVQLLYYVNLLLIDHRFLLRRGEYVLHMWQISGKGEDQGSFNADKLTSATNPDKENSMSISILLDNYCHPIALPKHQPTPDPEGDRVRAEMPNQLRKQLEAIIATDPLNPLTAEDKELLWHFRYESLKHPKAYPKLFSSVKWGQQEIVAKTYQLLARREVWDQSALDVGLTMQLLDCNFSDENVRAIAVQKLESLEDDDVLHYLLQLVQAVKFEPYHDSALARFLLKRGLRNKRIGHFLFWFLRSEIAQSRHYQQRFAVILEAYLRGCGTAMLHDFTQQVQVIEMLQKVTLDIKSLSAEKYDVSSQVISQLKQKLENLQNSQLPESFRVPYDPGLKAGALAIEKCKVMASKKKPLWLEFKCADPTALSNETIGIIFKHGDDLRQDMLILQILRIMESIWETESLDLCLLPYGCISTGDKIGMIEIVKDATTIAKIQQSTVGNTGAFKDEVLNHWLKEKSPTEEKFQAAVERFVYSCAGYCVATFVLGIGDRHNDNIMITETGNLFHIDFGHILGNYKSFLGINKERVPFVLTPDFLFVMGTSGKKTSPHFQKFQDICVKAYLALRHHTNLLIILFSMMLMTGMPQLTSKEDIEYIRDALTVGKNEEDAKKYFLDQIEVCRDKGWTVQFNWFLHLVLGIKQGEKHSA
# How it was run: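 Recombinant human p110γ assayed at room temperature in 20 mM MOPS pH 6.7, 10 mM MgCl2, 5 mM DTT, 0.03% CHAPS, 2% DMSO, with 20 μM PIP2 and 2 μM ATP plus [γ-33P]ATP. Product captured on WGA SPA beads overnight and counted; IC50 fitted from % of solvent-control activity versus log inhibitor concentration.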
# [3] = molecular target: PI3Kδ (p110δ/p85α) Recombinant Human Protein (Homo sapiens (Human), UniProt O00329); test: PI3Kδ Scintillation Proximity Assay; type: biochemical
# Chain of PI3Kδ (p110δ/p85α) Recombinant Human Protein (O00329 whole entry): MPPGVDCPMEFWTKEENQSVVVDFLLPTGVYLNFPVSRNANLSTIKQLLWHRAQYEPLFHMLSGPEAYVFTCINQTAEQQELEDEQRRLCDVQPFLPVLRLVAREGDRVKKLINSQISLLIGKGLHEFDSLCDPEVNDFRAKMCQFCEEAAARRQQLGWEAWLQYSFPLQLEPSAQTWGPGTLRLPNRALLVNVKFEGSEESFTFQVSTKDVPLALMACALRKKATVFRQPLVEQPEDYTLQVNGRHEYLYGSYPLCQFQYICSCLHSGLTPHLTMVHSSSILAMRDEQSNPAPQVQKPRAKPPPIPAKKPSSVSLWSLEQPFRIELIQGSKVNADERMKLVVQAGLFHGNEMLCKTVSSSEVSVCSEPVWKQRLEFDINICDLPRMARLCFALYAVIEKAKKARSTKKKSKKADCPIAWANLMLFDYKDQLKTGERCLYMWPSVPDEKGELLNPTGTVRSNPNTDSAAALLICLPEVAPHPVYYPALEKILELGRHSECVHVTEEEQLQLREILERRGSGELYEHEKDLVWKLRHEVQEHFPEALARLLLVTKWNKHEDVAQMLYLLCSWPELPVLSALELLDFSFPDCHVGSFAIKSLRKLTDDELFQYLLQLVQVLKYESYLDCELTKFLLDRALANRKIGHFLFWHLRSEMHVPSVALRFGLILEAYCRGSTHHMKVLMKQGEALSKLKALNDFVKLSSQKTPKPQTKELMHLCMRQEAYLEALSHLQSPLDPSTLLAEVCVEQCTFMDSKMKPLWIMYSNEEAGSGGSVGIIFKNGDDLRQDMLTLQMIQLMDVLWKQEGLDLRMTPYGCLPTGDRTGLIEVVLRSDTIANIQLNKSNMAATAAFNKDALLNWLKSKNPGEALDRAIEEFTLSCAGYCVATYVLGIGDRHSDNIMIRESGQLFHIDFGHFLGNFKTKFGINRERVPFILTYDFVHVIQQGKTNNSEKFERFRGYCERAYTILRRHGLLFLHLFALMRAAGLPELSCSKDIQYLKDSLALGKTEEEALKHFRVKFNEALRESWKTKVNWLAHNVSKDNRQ
# Chain of PI3Kδ (p110δ/p85α) Recombinant Human Protein (P27986 whole entry partner): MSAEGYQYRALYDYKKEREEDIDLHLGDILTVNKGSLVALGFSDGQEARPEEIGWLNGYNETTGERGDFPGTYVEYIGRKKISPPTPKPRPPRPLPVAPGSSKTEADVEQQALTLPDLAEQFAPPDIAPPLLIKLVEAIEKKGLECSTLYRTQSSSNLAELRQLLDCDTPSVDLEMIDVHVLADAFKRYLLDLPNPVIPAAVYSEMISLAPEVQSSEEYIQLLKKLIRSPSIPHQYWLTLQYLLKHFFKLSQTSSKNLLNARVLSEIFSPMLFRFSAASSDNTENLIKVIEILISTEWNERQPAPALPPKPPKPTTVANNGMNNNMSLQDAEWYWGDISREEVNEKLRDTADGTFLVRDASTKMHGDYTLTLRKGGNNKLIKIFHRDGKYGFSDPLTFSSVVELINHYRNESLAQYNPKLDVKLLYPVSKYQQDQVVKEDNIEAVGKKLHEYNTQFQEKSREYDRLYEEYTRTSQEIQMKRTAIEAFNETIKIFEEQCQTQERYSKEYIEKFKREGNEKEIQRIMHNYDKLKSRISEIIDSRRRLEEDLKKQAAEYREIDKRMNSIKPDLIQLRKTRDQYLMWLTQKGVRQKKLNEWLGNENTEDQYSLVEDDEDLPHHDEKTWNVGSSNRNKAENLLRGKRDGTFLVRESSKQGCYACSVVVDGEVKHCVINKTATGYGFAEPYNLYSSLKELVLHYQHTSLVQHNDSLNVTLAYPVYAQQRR
# How it was run: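 Recombinant human p110δ/p85α (3.4 nM) with 20 μM PIP2 and 2 μM ATP plus [γ-33P]ATP, in 20 mM MOPS pH 6.7, 10 mM MgCl2, 5 mM DTT, 0.03% CHAPS, 2% DMSO; 120 min at room temperature. Product captured on WGA SPA beads, scintillation counted; IC50 from percent-of-control curves.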
IC50 ([1]; Homo sapiens) [nM],IC50 [2] [nM],IC50 [3] [nM],IC50 [1] [nM],SMILES
100 to 500,< 100,100 to 500,,"Cc1nc(N)c2ncc(-c3cc(S(=O)(=O)NCC(C)(C)O)cc(F)c3C)n2n1 [Example 468, 3-(4-Amino-2-methylimidazo[2,1-f][1,2,4]triazin-7-yl)-5-fluoro-N-(2-hydroxy-2-methylpropyl)-4-methylbenzenesulfonamide]"
< 100,< 100,< 100,,"Cc1ccc(S(=O)(=O)N[C@H]2CC[C@H](CC#N)CC2)cc1-c1cnc2c(N)ncnn12 [Example 184, 3-(4-aminoimidazo[2,1-f][1,2,4]triazin-7-yl)-N-(trans-4-(cyanomethyl)cyclohexyl)-4-methylbenzenesulfonamide trifluoroacetate]"
100 to 500,< 100,100 to 500,,"Cc1ccc(S(=O)(=O)NC23CCC(C(F)F)(CC2)OC3)cc1-c1cnc2c(N)ncnn12 [Example 436, 3-(4-aminoimidazo[1,2-f][1,2,4]triazin-7-yl)-N-(1-(difluoromethyl)-2-oxabicyclo[2.2.2]octan-4-yl)-4-methylbenzenesulfonamide trifluoroacetate salt]"
,< 100,100 to 500,< 100,"Cc1ccc(S(=O)(=O)NC23CC(CO)(C2)C3)cc1-c1cnc2c(N)nc(C(F)(F)F)nn12 [Example 319, 3-(4-Amino-2-(trifluoromethyl)imidazo[1,2-f][1,2,4]triazin-7-yl)-N-(3-(hydroxymethyl)bicyclo[1.1.1]pentan-1-yl)-4-methylbenzenesulfonamide]"
< 100,< 100,100 to 500,,"O=S(=O)(O)c1ccccc1.[2H]C([2H])([2H])c1ccc(S(=O)(=O)NC23CCC(C#N)(C2)C3)cc1-c1cnc2c(N)ncnn12 [Example 255, 3-(4-Aminoimidazo[2,1-f][1,2,4]triazin-7-yl)-N-(4-cyanobicyclo[2.1.1]hexan-1-yl)-4-(methyl-d3)benzenesulfonamide crystalline benzenesulfonic acid salt]"
> 1000,< 100,500 to 2000,,"CCOC(=O)C1CCCN(S(=O)(=O)c2ccc(C)c(-c3cnc4c(N)nc(C(F)(F)F)cn34)c2)C1 (stereo not drawn) [Example 509, Ethyl 1-((3-(8-amino-6-(trifluoromethyl)imidazo[1,2-a]pyrazin-3-yl)-4-methylphenyl)sulfonyl)piperidine-3-carboxylate]"
100 to 500,< 100,< 100,,"Cc1ccc(S(=O)(=O)NC23CCC(O)(CC2)C3)cc1-c1cnc2c(N)nc(C(F)(F)F)cn12 [Example 444, 3-(8-Amino-6-(trifluoromethyl)imidazo[1,2-a]pyrazin-3-yl)-N-(4-hydroxybicyclo[2.2.1]heptan-1-yl)-4-methylbenzenesulfonamide trifluoroacetate salt]"
> 1000,< 100,500 to 2000,,"Cc1ccc(S(C)(=O)=O)cc1-c1cnc2c(N)nc(-c3ccc(N)nc3)cn12 [Example 482, 6-(6-Aminopyridin-3-yl)-3-(2-methyl-5-(methylsulfonyl)phenyl)imidazo[1,2-a]pyrazin-8-amine trifluoroacetate]"
< 100,< 100,100 to 500,,"Cc1ccc(S(=O)(=O)NC23CC(C(F)F)(C2)C3)cc1-c1cnc2c(N)nc(C(F)(F)F)cn12 [Example 278, 3-(8-Amino-6-(trifluoromethyl)imidazo[1,2-a]pyrazin-3-yl)-N-(3-(difluoromethyl)bicyclo[1.1.1]pentan-1-yl)-4-methylbenzenesulfonamide trifluoroacetate salt]"
< 100,< 100,< 100,,"Cc1ccc(S(=O)(=O)N2CC3(CC(O)C3)C2)cc1-c1cnc2c(N)nc(C(F)(F)F)nn12 [Example 343, 2-((3-(4-amino-2-(trifluoromethyl)imidazo[2,1-f][1,2,4]triazin-7-yl)-4-methylphenyl)sulfonyl)-2-azaspiro[3.3]heptan-6-ol TFA]"
< 100,< 100,100 to 500,,"O=C(O)C(F)(F)F.[2H]C([2H])([2H])c1ccc(S(=O)(=O)NC23CCC(C#N)(CC2)C3)cc1-c1cnc2c(N)ncnn12 [Example 362, 3-(4-Aminoimidazo[2,1-f][1,2,4]triazin-7-yl)-N-(4-cyanobicyclo[2.2.1]heptan-1-yl)-4-(methyl-d3)benzenesulfonamide trifluoroacetate salt]"
100 to 500,< 100,100 to 500,,"Cc1ccc(S(=O)(=O)NC23CCC(CO)(CC2)CC3)cc1-c1cnc2c(N)ncnn12 [Example 186, 3-(4-aminoimidazo[2,1-f][1,2,4]triazin-7-yl)-N-(4-(hydroxymethyl)bicyclo[2.2.2]octan-1-yl)-4-methylbenzenesulfonamide]"
100 to 500,< 100,500 to 2000,,"Cc1ccc(S(=O)(=O)NC2CCC(F)(F)CC2)cc1-c1cnc2c(N)ncnn12 [Example 122, 3-(4-aminoimidazo[2,1-f][1,2,4]triazin-7-yl)-N-(4,4-difluorocyclohexyl)-4-methylbenzenesulfonamide]"

# More lines, now with the values behind:
SMILES,IC50 ([1]; Homo sapiens) [nM],IC50 [2] [nM],IC50 [3] [nM],IC50 [1] [nM]
"Cc1ccc(S(=O)(=O)N[C@H]2CC[C@H](CO)OC2)cc1-c1cnc2c(N)ncnn12 [Example 62, 3-(4-Aminoimidazo[2,1-f][1,2,4]triazin-7-yl)-N-[(3S,6R)-6-(hydroxymethyl)tetrahydro-2H-pyran-3-yl]-4-methylbenzenesulfonamide]",100 to 500,< 100,100 to 500,
"Cc1ccc(S(=O)(=O)N[C@H]2C[C@](C)(C#N)C2)cc1-c1cnc2c(N)ncnn12 [Example 87, 3-(4-Aminoimidazo[1,2-f][1,2,4]triazin-7-yl)-N-((1r,3r)-3-cyano-3-methylcyclobutyl)-4-methylbenzenesulfonamide trifluoroacetate salt]",,< 100,100 to 500,100 to 500
"C[C@]1(O)CC[C@H](NS(=O)(=O)c2cc(-c3cnc4c(N)nccn34)ccc2F)CC1 [Example 359, 5-(8-aminoimidazo[1,2-a]pyrazin-3-yl)-2-fluoro-N-((1r,4r)-4-hydroxy-4-methylcyclohexyl)benzenesulfonamide]",,< 100,100 to 500,> 1000
"Cc1cccc(-c2cn3c(-c4cc(S(=O)(=O)N[C@H]5CC[C@H](O)CC5)ccc4C)cnc3c(N)n2)c1 [Example 19, 3-[8-Amino-6-(3-methylphenyl)imidazo[1,2-a]pyrazin-3-yl]-N-(trans-4-hydroxycyclohexyl)-4-methylbenzenesulfonamide]",< 100,< 100,100 to 500,
"Cc1ccc(S(=O)(=O)N[C@H]2CC[C@H](NC(=O)OC(C)(C)C)CC2)cc1-c1cnc2c(N)ncnn12 [Example 72, tert-Butyl [trans-4-({[3-(4-aminoimidazo[2,1-f][1,2,4]triazin-7-yl)-4-methylphenyl]sulfonyl}amino)cyclohexyl]carbamate]",> 1000,< 100,> 2000,
"Cc1ccc(S(=O)(=O)N[C@H]2CC[C@H](O)CC2)cc1-c1cnc2c(N)nc(-c3ccc(C(C)O)cc3F)cn12 (stereo partly drawn) [Example 82, 3-(8-Amino-6-(2-fluoro-4-(1-hydroxyethyl)phenyl)imidazo[1,2-a]pyrazin-3-yl)-N-(trans-4-hydroxycyclohexyl)-4-methylbenzenesulfonamide]",< 100,< 100,< 100,
"Cc1ccc(S(=O)(=O)NC23CCC(CC#N)(C2)C3)cc1-c1cnc2c(N)ncnn12 [Example 108, 3-(4-Aminoimidazo[1,2-f][1,2,4]triazin-7-yl)-N-(4-(cyanomethyl)bicyclo[2.1.1]hexan-1-yl)-4-methylbenzenesulfonamide trifluoroacetate salt]",,< 100,100 to 500,100 to 500
"Cc1ccc(S(=O)(=O)N[C@H]2CC[C@H](NC(=O)OC(C)(C)C)CC2)cc1-c1cnc2c(N)nccn12 [Example 55, tert-Butyl [trans-4-({[3-(8-aminoimidazo[1,2-a]pyrazin-3-yl)-4-methylphenyl]sulfonyl}amino)cyclohexyl]carbamate]",> 1000,< 100,> 2000,
"Cc1ccc(S(=O)(=O)N[C@H]2CC[C@H](CO)OC2)cc1-c1cnc2c(N)nccn12 [Example 57, 3-(8-Aminoimidazo[1,2-a]pyrazin-3-yl)-N-[(3S,6R)-6-(hydroxymethyl)tetrahydro-2H-pyran-3-yl]-4-methylbenzenesulfonamide]",> 1000,< 100,500 to 2000,
"COC(=O)NC12CC(NS(=O)(=O)c3ccc(C)c(-c4cnc5c(N)ncnn45)c3)(C1)C2 [Example 115, Methyl 3-(3-(4-aminoimidazo[1,2-f][1,2,4]triazin-7-yl)-4-methylphenylsulfonamido)bicyclo[1.1.1]pentan-1-ylcarbamate trifluoroacetate salt]",,< 100,500 to 2000,100 to 500
"Cc1ccc(S(=O)(=O)NC2CCOC2C)cc1-c1cnc2c(N)ncnn12 (stereo not drawn) [Example 100, 3-(4-Aminoimidazo[1,2-f][1,2,4]triazin-7-yl)-4-methyl-N-(2-methyltetrahydrofuran-3-yl)benzenesulfonamide trifluoroacetate salt]",,< 100,500 to 2000,500 to 1000
